# Test results: PubChem BioAssay (NCI)
#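 Test compounds were applied to cells in 96-well plates for 48 hours at 5 doses. At the TGI there is no net growth.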
# How the values were obtained:
# Assay in all cases: DTP human tumour cell line panel, 48 h
# [1] = system: MOLT-4 leukemia
# [2] = system: HT29 colon
# [3] = system: LOX IMVI melanoma
# [4] = system: HCT-116 colon
# [5] = system: UACC-257 melanoma
# [6] = system: RPMI-8226 leukemia
# [7] = system: IGROV1 ovarian
# [8] = system: HL-60(TB) leukemia
# [9] = system: SK-MEL-28 melanoma
# [10] = system: RXF-631 renal
# [11] = system: SN12C renal
# [12] = system: SF-295 CNS
# [13] = system: OVCAR-5 ovarian
# [14] = system: LXFL 529 NSCLC
# [15] = system: SNB-78 CNS
# [16] = system: NCI-H522 lung
# [17] = system: DLD-1 colon
# [18] = system: TK-10 renal
# [19] = system: U251 CNS
# [20] = system: M19-MEL melanoma
# [21] = system: OVCAR-4 ovarian
# [22] = system: SNB-19 CNS
# [23] = system: HCT-15 colon
# [24] = system: EKVX NSCLC
# [25] = system: RXF 393 renal
# [26] = system: 786-0 renal
# [27] = system: MALME-3M melanoma
# [28] = system: CAKI-1 renal
# [29] = system: KM20L2 colon
# [30] = system: CCRF-CEM leukemia
# [31] = system: SNB-75 CNS
# [32] = system: A498 renal
# [33] = system: SK-OV-3 ovarian
# [34] = system: SW-620 colon
# [35] = system: UACC-62 melanoma
# [36] = system: HOP-62 NSCLC
# [37] = system: DMS 273 small cell lung
# [38] = system: XF 498 CNS
# [39] = system: ACHN renal
# [40] = system: HOP-92 NSCLC
# [41] = system: A549 NSCLC
# [42] = system: SK-MEL-5 melanoma
# [43] = system: HCC-2998 colon
# [44] = system: SK-MEL-2 melanoma
# [45] = system: K-562 leukemia
# [46] = system: SR leukemia
# [47] = system: M14 melanoma
# [48] = system: UO-31 renal
# [49] = system: HOP-18 NSCLC
# [50] = system: NCI-H23 lung
# [51] = system: SF-268 CNS
# [52] = system: KM12 colon
# [53] = system: NCI-H460 lung
# [54] = system: SF-539 CNS
# [55] = system: OVCAR-8 ovarian
# [56] = system: DMS 114 small cell lung
# [57] = system: OVCAR-3 ovarian
# [58] = system: NCI-H226 lung
# [59] = system: COLO 205 colon
smiles,measurement,setting,value
CCCCCCCCCCNC(=S)OCCCC,TGI,[1],32.6 µM
same,TGI,[2],37.4 µM
same,TGI,[3],29.8 µM
same,TGI,[4],34.7 µM
same,TGI,[5],49.3 µM
same,TGI,[6],34.9 µM
same,TGI,[7],87.3 µM
same,TGI,[8],31.2 µM
same,TGI,[9],72.2 µM
same,TGI,[10],87.1 µM
same,TGI,[11],38.2 µM
same,TGI,[12],> 100 µM
same,TGI,[13],29 µM
same,TGI,[14],55.6 µM
same,TGI,[15],88.4 µM
same,TGI,[16],42.4 µM
same,TGI,[17],85.4 µM
same,TGI,[18],45 µM
same,TGI,[19],37.5 µM
same,TGI,[20],> 100 µM
same,TGI,[21],> 100 µM
same,TGI,[22],> 100 µM
same,TGI,[23],39.7 µM
same,TGI,[24],65.8 µM
same,TGI,[25],59.5 µM
same,TGI,[26],76.3 µM
same,TGI,[27],54.8 µM
same,TGI,[28],61.1 µM
same,TGI,[29],37.7 µM
same,TGI,[30],37.6 µM
same,TGI,[31],86.7 µM
same,TGI,[32],62.6 µM
same,TGI,[33],77.3 µM
same,TGI,[34],35.2 µM
same,TGI,[35],53.1 µM
same,TGI,[36],68.7 µM
same,TGI,[37],42.3 µM
same,TGI,[38],39.8 µM
same,TGI,[39],69.3 µM
same,TGI,[40],41.1 µM
same,TGI,[41],73.6 µM
same,TGI,[42],33.3 µM
same,TGI,[43],57 µM
same,TGI,[44],27.7 µM
same,TGI,[45],36.6 µM
same,TGI,[46],38 µM
same,TGI,[47],52.4 µM
same,TGI,[48],60.3 µM
same,TGI,[49],81.5 µM
same,TGI,[50],53.9 µM
same,TGI,[51],58.7 µM
same,TGI,[52],29.9 µM
same,TGI,[53],43.5 µM
same,TGI,[54],48.3 µM
same,TGI,[55],> 100 µM
same,TGI,[56],45.8 µM
O=C(CC(=O)c1cccc([N+](=O)[O-])c1)C(=O)Nc1nc([N+](=O)[O-])cs1,TGI,[1],> 100 µM
same,TGI,[2],> 100 µM
same,TGI,[3],> 100 µM
same,TGI,[4],> 100 µM
same,TGI,[5],> 100 µM
same,TGI,[57],> 100 µM
same,TGI,[6],> 100 µM
same,TGI,[7],> 100 µM
same,TGI,[8],> 100 µM
same,TGI,[9],> 100 µM
same,TGI,[10],> 100 µM
same,TGI,[11],> 100 µM
same,TGI,[12],> 100 µM
same,TGI,[13],> 100 µM
same,TGI,[14],> 100 µM
same,TGI,[15],> 100 µM
same,TGI,[16],> 100 µM
same,TGI,[17],> 100 µM
same,TGI,[18],> 100 µM
same,TGI,[19],> 100 µM
same,TGI,[20],> 100 µM
same,TGI,[21],> 100 µM
same,TGI,[22],> 100 µM
same,TGI,[23],> 100 µM
same,TGI,[24],> 100 µM
same,TGI,[25],> 100 µM
same,TGI,[26],> 100 µM
same,TGI,[27],> 100 µM
same,TGI,[28],> 100 µM
same,TGI,[29],> 100 µM
same,TGI,[30],> 100 µM
same,TGI,[32],> 100 µM
same,TGI,[33],> 100 µM
same,TGI,[34],> 100 µM
same,TGI,[35],> 100 µM
same,TGI,[36],> 100 µM
same,TGI,[37],> 100 µM
same,TGI,[40],> 100 µM
same,TGI,[41],> 100 µM
same,TGI,[42],> 100 µM
same,TGI,[43],> 100 µM
same,TGI,[44],> 100 µM
same,TGI,[45],> 100 µM
same,TGI,[46],> 100 µM
same,TGI,[47],> 100 µM
same,TGI,[48],> 100 µM
same,TGI,[49],> 100 µM
same,TGI,[50],> 100 µM
same,TGI,[51],> 100 µM
same,TGI,[52],> 100 µM
same,TGI,[58],> 100 µM
same,TGI,[59],> 100 µM
same,TGI,[53],> 100 µM
same,TGI,[54],> 100 µM
same,TGI,[55],> 100 µM
same,TGI,[56],> 100 µM
